Like-named read-outs stand apart in the source and are kept apart here. Positions of bridges follow the written chain, without caps; N, C: chain ends. Non-standard residues stand in square brackets, D forms with d. Residues, ends and D or L forms follow the SMILES beside them. Nva = CCC[C@H](N)C(=O)O; Sar = CNCC(=O)O
What was measured:
[1] = test system: classical complement pathway; experiment: In vitro haemolysis assay (inhibition of classical complement pathway); assay type: cell-based, human
Method in brief: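 Compound dilutions preincubated 15 min at room temperature with diluted human serum (titrated per batch for 70-90% maximal haemolysis), then antibody-sensitized sheep RBC (10^7/well) added for 30 min at 37 °C in Tris/casein buffer, pH 7.4. Stopped with EDTA; haemolysis read at 405 nm; IC50 by 4PL fit.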

[2] = Solubility test at 10 mg/mL (visual inspection and light scattering); assay type: physicochemical; conditions: for Solubility, Condition 1: Acetate pH 4; for Solubility, Condition 2: Acetate pH 5; for Solubility, Condition 3: Phosphate pH 6; for Solubility, Condition 4: Phosphate pH 7; for Solubility, Condition 5: Phosphate pH 7.5
Experimental: The solubility of compounds was assessed by measuring light scattering over a pH interval from pH 4 to pH 7.5.
Compounds were dissolved in a stock solution of 20 mg/mL in H2O at pH 2.5 or pH 10. These stock solutions were diluted 1:1 with 200 mM buffered solution to reach a final solution of 10 mg/mL compound in 100 mM buffer. The 5 investigated conditions were (1) acetate pH 4.0, (2) acetate pH 5.0, (3) phosphate pH 6.0, (4) phosphate pH 7 and (5) phosphate pH 7.5.
Visual inspection included manually checking the 96 well plate for wells that are clear or non-clear. In addition to this a picture of the 96 well plate is taken.
Absorbance was measured at four wavelengths: 280 nm, 325 nm, 340 nm and 360 nm in an UV transparent 96 well microplate in a SpectraMax 190 microplate reader (Molecular Devices).
The criteria for this was a combination of visual inspection and light scattering not exceeding 0.1 AU, where values below 0.1 AU are good in visually clear samples.

[3] = human serum, sensitized sheep red blood cells, Table 3, given as upper bounds, read-out: IC50, inhibition of hemolysis
[4] = human serum, sensitized sheep red blood cells, Table 4, valine 3 vs isoleucine 3 pairs, read-out: CP hemolysis IC50
[5] = Table 5, different residues at position 3 of Ac-IC(1)XWQDWGEHRC(1)T-NH2, read-out: IC50, CP hemolysis

Compound	IC50 ([1]; human serum, sensitized sheep red blood cells, Table 2, read-out: CP hemolysis IC50) [nM]	IC50 [1, 3] [nM]	Solubility, Condition 1 [2]	Solubility, Condition 2 [2]	Solubility, Condition 3 [2]	Solubility, Condition 4 [2]	Solubility, Condition 5 [2]	IC50 [1, 4] [nM]	IC50 [1, 5] [nM]
CC[C@H](C)[C@H](NC(C)=O)C(=O)N[C@H]1CSSC[C@@H](C(=O)N[C@H](C(N)=O)[C@@H](C)O)NC(=O)[C@H](CCCNC(=N)N)NC(=O)[C@H](Cc2c[nH]cn2)NC(=O)[C@H](C)NC(=O)CNC(=O)[C@H](Cc2c[nH]c3ccccc23)NC(=O)[C@H](CC(=O)O)NC(=O)[C@H](CCC(N)=O)NC(=O)[C@H](Cc2c[nH]c3ccccc23)NC(=O)[C@H]([C@@H](C)CC)NC1=O [Compound 1] (Ac-ICIWQDWGAHRCT-NH2; disulfide 2-12)	150	< 250	+ (“+” denotes solubility at the given condition, as determined by UV absorbance being less than 0.1 AU at 340 nm and the sample being clear when manually inspected)	− (“−” denotes lack of solubility at the given condition, as UV absorbance at 340 nm exceeds 0.1 AU and/or it is visibly turbid or contains particles)	− (“−” denotes lack of solubility at the given condition, as UV absorbance at 340 nm exceeds 0.1 AU and/or it is visibly turbid or contains particles)	− (“−” denotes lack of solubility at the given condition, as UV absorbance at 340 nm exceeds 0.1 AU and/or it is visibly turbid or contains particles)	− (“−” denotes lack of solubility at the given condition, as UV absorbance at 340 nm exceeds 0.1 AU and/or it is visibly turbid or contains particles)		
CC[C@H](C)[C@H](NC(=O)[C@H](C)NC(=O)[C@H](CO)NC(=O)[C@H](CO)NC(=O)[C@H](CCC(=O)O)NC(C)=O)C(=O)N[C@H]1CSSC[C@@H](C(=O)N[C@H](C(N)=O)[C@@H](C)O)NC(=O)[C@H](CCCNC(=N)N)NC(=O)[C@H](Cc2c[nH]cn2)NC(=O)[C@H](CCC(=O)O)NC(=O)CNC(=O)[C@H](Cc2c[nH]c3ccccc23)NC(=O)[C@H](CC(=O)O)NC(=O)[C@H](CCC(N)=O)NC(=O)[C@H](Cc2c[nH]c3ccccc23)NC(=O)[C@H]([C@@H](C)CC)NC1=O [Compound 3] (Ac-ESSAICIWQDWGEHRCT-NH2; disulfide 6-16)		< 100	+ (“+” denotes solubility at the given condition, as determined by UV absorbance being less than 0.1 AU at 340 nm and the sample being clear when manually inspected)	− (“−” denotes lack of solubility at the given condition, as UV absorbance at 340 nm exceeds 0.1 AU and/or it is visibly turbid or contains particles)	− (“−” denotes lack of solubility at the given condition, as UV absorbance at 340 nm exceeds 0.1 AU and/or it is visibly turbid or contains particles)	+ (“+” denotes solubility at the given condition, as determined by UV absorbance being less than 0.1 AU at 340 nm and the sample being clear when manually inspected)	+ (“+” denotes solubility at the given condition, as determined by UV absorbance being less than 0.1 AU at 340 nm and the sample being clear when manually inspected)	69	
CC[C@H](C)[C@H](NC(=O)[C@H](C)NC(=O)[C@H](CO)NC(=O)[C@H](CO)NC(=O)[C@H](CCC(=O)O)NC(C)=O)C(=O)N[C@H]1CSSC[C@@H](C(=O)N[C@H](C(=O)NCC(=O)N[C@@H](C)C(=O)N[C@@H](CCC(=O)O)C(=O)N[C@@H](CO)C(N)=O)[C@@H](C)O)NC(=O)[C@H](CCCNC(=N)N)NC(=O)[C@H](Cc2c[nH]cn2)NC(=O)[C@H](CCC(=O)O)NC(=O)CNC(=O)[C@H](Cc2c[nH]c3ccccc23)NC(=O)[C@H](CC(=O)O)NC(=O)[C@H](CCC(N)=O)NC(=O)[C@H](Cc2c[nH]c3ccccc23)NC(=O)[C@H]([C@@H](C)CC)NC1=O [Compound 14] (Ac-ESSAICIWQDWGEHRCTGAES-NH2; disulfide 6-16)		< 100	+ (“+” denotes solubility at the given condition, as determined by UV absorbance being less than 0.1 AU at 340 nm and the sample being clear when manually inspected)	− (“−” denotes lack of solubility at the given condition, as UV absorbance at 340 nm exceeds 0.1 AU and/or it is visibly turbid or contains particles)	− (“−” denotes lack of solubility at the given condition, as UV absorbance at 340 nm exceeds 0.1 AU and/or it is visibly turbid or contains particles)	+ (“+” denotes solubility at the given condition, as determined by UV absorbance being less than 0.1 AU at 340 nm and the sample being clear when manually inspected)	+ (“+” denotes solubility at the given condition, as determined by UV absorbance being less than 0.1 AU at 340 nm and the sample being clear when manually inspected)		
CC[C@H](C)[C@H](NC(C)=O)C(=O)N[C@H]1CSSC[C@@H](C(=O)N[C@H](C(=O)NCC(=O)N[C@@H](C)C(=O)N[C@@H](CCC(=O)O)C(=O)N[C@@H](CO)C(N)=O)[C@@H](C)O)NC(=O)[C@H](CCCNC(=N)N)NC(=O)[C@H](Cc2c[nH]cn2)NC(=O)[C@H](CCC(=O)O)NC(=O)CNC(=O)[C@H](Cc2c[nH]c3ccccc23)NC(=O)[C@H](CC(=O)O)NC(=O)[C@H](CCC(N)=O)NC(=O)[C@H](Cc2c[nH]c3ccccc23)NC(=O)[C@H]([C@@H](C)CC)NC1=O [Compound 15] (Ac-ICIWQDWGEHRCTGAES-NH2; disulfide 2-12)		< 100	+ (“+” denotes solubility at the given condition, as determined by UV absorbance being less than 0.1 AU at 340 nm and the sample being clear when manually inspected)	− (“−” denotes lack of solubility at the given condition, as UV absorbance at 340 nm exceeds 0.1 AU and/or it is visibly turbid or contains particles)	− (“−” denotes lack of solubility at the given condition, as UV absorbance at 340 nm exceeds 0.1 AU and/or it is visibly turbid or contains particles)	+ (“+” denotes solubility at the given condition, as determined by UV absorbance being less than 0.1 AU at 340 nm and the sample being clear when manually inspected)	+ (“+” denotes solubility at the given condition, as determined by UV absorbance being less than 0.1 AU at 340 nm and the sample being clear when manually inspected)	47	
CC[C@H](C)[C@H](NC(C)=O)C(=O)N[C@H]1CSSC[C@@H](C(=O)N[C@H](C(N)=O)[C@@H](C)O)NC(=O)[C@H](CO)NC(=O)[C@H](Cc2c[nH]cn2)NC(=O)[C@H](CCC(=O)O)NC(=O)CNC(=O)[C@H](Cc2c[nH]c3ccccc23)NC(=O)[C@H](CC(=O)O)NC(=O)[C@H](CCC(N)=O)NC(=O)[C@H](Cc2c[nH]c3ccccc23)NC(=O)[C@H](C(C)C)NC1=O [F, reference compound] (Ac-ICVWQDWGEHSCT-NH2; disulfide 2-12)								540	
CC[C@H](C)[C@H](NC(C)=O)C(=O)N[C@H]1CSSC[C@@H](C(=O)N[C@@H](CO)C(N)=O)NC(=O)[C@H](CCCNC(=N)N)NC(=O)[C@H](Cc2c[nH]cn2)NC(=O)[C@H](CCC(=O)O)NC(=O)CNC(=O)[C@H](Cc2c[nH]c3ccccc23)NC(=O)[C@H](CC(=O)O)NC(=O)[C@H](CCC(N)=O)NC(=O)[C@H](Cc2c[nH]c3ccccc23)NC(=O)[C@H](C(C)C)NC1=O [G, reference compound] (Ac-ICVWQDWGEHRCS-NH2; disulfide 2-12)								180	
CC[C@H](C)[C@H](NC(=O)[C@H](C)NC(=O)[C@H](CO)NC(=O)CNC(=O)[C@H](CCC(=O)O)NC(C)=O)C(=O)N[C@H]1CSSC[C@@H](C(=O)N(C)CC(=O)N[C@@H](CCC(=O)O)C(N)=O)NC(=O)[C@H](CCCNC(=N)N)NC(=O)[C@H](Cc2c[nH]cn2)NC(=O)[C@H](CCC(=O)O)NC(=O)CNC(=O)[C@H](Cc2c[nH]c3ccccc23)NC(=O)[C@H](CC(=O)O)NC(=O)[C@H](CCC(N)=O)NC(=O)[C@H](Cc2c[nH]c3ccccc23)NC(=O)[C@H](C(C)C)NC1=O [H, reference compound] (Ac-EGSAICVWQDWGEHRC[Sar]E-NH2; disulfide 6-16)								330	
CC[C@H](C)[C@H](NC(C)=O)C(=O)N[C@H]1CSSC[C@@H](C(=O)N[C@H](C(=O)N[C@@H](CCC(=O)O)C(=O)NCC(=O)N[C@@H](CCC(=O)O)C(N)=O)[C@@H](C)O)NC(=O)[C@H](CCCNC(=N)N)NC(=O)[C@H](Cc2c[nH]cn2)NC(=O)[C@H](CCC(=O)O)NC(=O)CNC(=O)[C@H](Cc2c[nH]c3ccccc23)NC(=O)[C@H](CC(=O)O)NC(=O)[C@H](CCC(N)=O)NC(=O)[C@H](Cc2c[nH]c3ccccc23)NC(=O)[C@H](C(C)C)NC1=O [J, reference compound] (Ac-ICVWQDWGEHRCTEGE-NH2; disulfide 2-12)								240	
CCC[C@@H]1NC(=O)[C@@H](NC(=O)[C@@H](NC(C)=O)[C@@H](C)CC)CSSC[C@@H](C(=O)N[C@H](C(N)=O)[C@@H](C)O)NC(=O)[C@H](CCCNC(=N)N)NC(=O)[C@H](Cc2c[nH]cn2)NC(=O)[C@H](CCC(=O)O)NC(=O)CNC(=O)[C@H](Cc2c[nH]c3ccccc23)NC(=O)[C@H](CC(=O)O)NC(=O)[C@H](CCC(N)=O)NC(=O)[C@H](Cc2c[nH]c3ccccc23)NC1=O [Norvaline, Ac-IC(1)XWQDWGEHRC(1)T-NH2, reference compound] (Ac-IC[Nva]WQDWGEHRCT-NH2; disulfide 2-12)									> 1000
Ac-IC(1)XWQDWGEHRC(1)T-NH2 [Beta-Homo-lsoleucine, reference compound]									> 10000

Reference: patent US11965039B2, “Compstatin analogues and their medical uses” (priority 2018, dated 2024)
